From patent publication US20230064990A1, “DOSING REGIMENS AND METHODS FOR TREATING CANCER” (Panbela Therapeutics, Inc., priority 2020, published 2023)
“And” between values parts separate entries of the source, which are not always exact repeats. Identical values can stand only once. Like-named read-outs stand apart in the source and are kept apart here.

What was measured:
six human PDA cell lines = experiment: Cell proliferation in six human PDA cell lines; format: cell-based
Experimental: AsPC-1, BxPC-3, Capan-1, HPAF-II, MIA PaCa-2 and PANC-1 cells were seeded in 96-well plates and allowed to adhere overnight. After 24 h fresh media was added containing 0.5-10 μM concentrations of (S,S)-(HO)2DEHSPM alone or +0.5 μM GEM, +5 nM NAB, or + both, or containing GEM, NAB or GEM+NAB alone. Cell proliferation was measured in triplicate 24, 48, 72 and 96 h post-treatment and IC50 values were calculated.

[1] = Phase 1 monotherapy dose escalation study, pharmacokinetics; format: in vivo, human; settings: 0.05-0.8 mg/kg subcutaneous; Days 1 and 18 of cycle 1
[2] = Phase 1a/1b study in combination with G and A, pharmacokinetics; format: in vivo, human; settings: for Cmax / Tmax: human, plasma, subcutaneous
Experimental: (§1) G (1000 mg/m^2) and A (125 mg/m^2) were administered intravenously on Days 1, 8, and 15 of each cycle. […] PK was evaluated on day 1 of cycle 1. Efficacy was assessed by CA19-9 levels, objective response was assessed by RECIST criteria, progression-free survival (PFS) and overall survival (OS).
(§2) This is a multicenter, open label, Phase 1a/1b study to evaluate to evaluate the safety, tolerability, pharmacokinetics and efficacy of (S,S)-(HO)2DEHSPM when administered in combination with G and A as first-line therapy in pancreatic cancer patients previously untreated for metastatic disease. The objective was to determine a recommended Phase 2 dose. Using a modified 3+3 dose escalation scheme, cohorts of subjects were dosed with subcutaneous injections of (S,S)-(HO)2DEHSPM at 0.2, 0.4 or 0.6 mg/kg days 1-5 of each 28-day cycle. Gemcitabine (1000 mg/m^2) and A (125 mg/m^2) were administered intravenously on Days 1, 8, and 15 of each cycle. […] PK was evaluated on day 1 of cycle 1. Efficacy was assessed by objective response rate (ORR) using RECIST criteria and by changes in CA19-9 levels. Subjects were treated until disease progression or the development of dose-limiting toxicity. Based upon initial safety findings and preliminary signals of efficacy, the protocol was amended to evaluate progression-free survival (PFS) and overall survival (OS) and expand the study to up to 36 subjects at the recommended Phase 2 dose. To date, 20 subjects were enrolled in cohorts 1-3 and evaluated for dose limiting toxicity and early signals of efficacy.

metastatic PDA = experiment: Phase 1a/1b study in combination with G and A, efficacy (RECIST, CA19-9); format: in vivo, human
Experimental: as §1, §2

[3] = Phase 1a/1b Cohort 4, shortened daily/periodic dosing regimen, liver toxicity; format: in vivo, human; settings: Cohort 4 regimen vs reference dosing regimen, particularly Cohort 3
Experimental: As part of the same study described in Example 4, one cohort of patients (Cohort 4) was administered a combination shortened daily dosing regimen/periodic dosing regimen and liver toxicities were compared to the reference dosing regimen described in Example 4.
Cohort 4 was administered 0.4 mg/kg/day of (S,S)-(HO)2DEHSPM for 5 consecutive days (for a total of 5 doses/cycle) beginning on day 1 (i.e. days 1-5) of each of Cycles 1 and 2. Thereafter Cohort 4 was administered 0.4 mg/kg/day of (S,S)-(HO)2DEHSPM on Days 1, 8 and 15 beginning on day 1 of Cycle 3 (for a total of 3 doses per cycle) and continuing for each cycle thereafter. Cohort 4 patients were treated for 3 to 6 or more total cycles depending on the individual patient's tolerance of treatment.

[4] = Repeat doses in healthy beagles; format: in vivo
Experimental: This effect on the exocrine pancreas in dogs (causing nearly complete ablation of the exocrine pancreas) was an unexpected finding in development of this polyamine analogue as a therapeutic agent. It occurred in a dose-dependent manner several weeks after drug dosing was discontinued in dogs. Beginning 5 to 6 weeks post last dose, the animals at the high-dose levels rapidly lost weight and their serum trypsin-like immunoreactivity decreased to <2.5 μg/L, which is diagnostic for exocrine pancreatic insufficiency in this species. In addition, fat absorption tests became abnormal and hepatic transaminase values increased. The pancreata of euthanized animals were grossly atrophied with diffuse moderate to severe pancreatic atrophy, especially of the acini. However, the islets appeared both histologically intact and functional based on serum glucose levels and oral glucose tolerance tests.

[5] = 4-week repeated dose toxicity study in rats; format: in vivo
Experimental: For the first-in-human (Phase 1a/1b) study, a starting dose of 0.05 mg/kg (1.8 mg/m^2) of (S,S)-(HO)2DEHSPM.4HCl was chosen as 1/10 the severely toxic dose (STD10) observed in a 4-week repeated dose toxicity study in rats (3 mg/kg/day; […]). This dose was chosen in accordance with the ICH S9 Guideline for the Nonclinical Development for Anti-Cancer Pharmaceuticals. For the Phase 1a/1b dosing schedule patients were administered up to 0.4 mg/kg/day Monday through Friday for 3 weeks for a total cumulative dose (TCD) of 6 mg/kg. In this animal experiment, one cycle consisted of 3 weeks of dosing and 5 weeks of rest for a total cycle length of 8 weeks.

clinical = settings: human, in vivo
Experimental: (§3) Safety and tolerability were evaluated by clinical and laboratory assessments. PK was evaluated on Days 1 and 18 of cycle 1. Efficacy was assessed by RECIST criteria and overall survival.

[6] = Phase 1 monotherapy dose escalation study, safety and tolerability
Experimental: as §3

[7] = test system: human L3.6pl pancreatic cancer cells; experiment: Orthotopic implantation of L3.6pl pancreatic cancer cells into nude mice; settings: for Median survival: control group 21 days
Experimental: These studies examined the anti-neoplastic effects of subcutaneous administration of (S,S)-(HO)2DEHSPM following orthotopic implantation of human L3.6pl pancreatic cancer cells into the pancreas of nude mice.
L3.6pl cells were injected into the pancreas of nude mice; treatment was initiated by group (n=10/group planned) 7-10 days later following establishment of tumors:
Study 1: saline (control), (S,S)-(HO)2DEHSPM (25 mg/kg), (S,S)-(HO)2DEHSPM (50 mg/kg), and (S,S)-(HO)2DEHSPM (100 mg/kg) daily (QD) for 4 to 6 weeks (wks).
Study 2: saline (control), (S,S)-(HO)2DEHSPM (25 mg/kg QD), (S,S)-(HO)2DEHSPM (25 mg/kg 3×/wk), (S,S)-(HO)2DEHSPM (15 mg/kg 3×/wk), and (S,S)-(HO)2DEHSPM (5 mg/kg 3×/wk) for 4 to 6 wks.
Study 3: saline (control), gemcitabine (GEM) (100 mg/kg 2×/wk, intraperitoneally), (S,S)-(HO)2DEHSPM (25 mg/kg 3×/wk), and (S,S)-(HO)2DEHSPM+GEM for 4 to 6 wks.

[8] = Cohorts 2 and 3, N=13 evaluable, with G and A
[9] = in combination with G+A, previously untreated metastatic PDA
[10] = interim, cohorts 2 and 3, with G and A
[11] = Study 3, compared with controls, GEM 100 mg/kg 2×/wk ip, (S,S)-(HO)2DEHSPM 25 mg/kg 3×/wk

In the case of `CCNCCC(O)CNCCCCNCC(O)CCNCC` [(S,S)-(HO)2DEHSPM, (6S,15S)-3,8,13,18-teraazaicosane-6,15-diol], the anti-proliferative effect (six human PDA cell lines; 0.5-10 μM, maximal inhibition most often with 10 μM) is reported as “anti-proliferative effect in all cell lines”, the “inhibition by (S,S)-(HO)2DEHSPM alone compared with GEM+NAB” value (six human PDA cell lines; ASPC-1, BxPC-3 and Capan-1 cells, p<0.005) is reported as “greater inhibition than GEM+NAB” and the “Plasma Cmax and AUC0-t versus dose” value [1] is reported as “increased linearly with dose”. The PK parameters ([2]; cohort 1 (0.2 mg/kg), day 1 of cycle 1) was “below the limits of detection at most time points”, the Cmax ([2]; sc, Cohort 1 (0.2 mg/kg) N=4, day 1 of cycle 1, read-out: Cmax Mean) was 26.6 ng/mL and the Cmax ([2]; sc, Cohort 2 (0.4 mg/kg) N=7, day 1 of cycle 1, read-out: Cmax Mean) was 115 ng/mL. It also gave a Cmax ([2]; sc, Cohort 3 (0.6 mg/kg) N=5, day 1 of cycle 1, read-out: Cmax Mean) of 147 ng/mL, a Tmax ([2]; Cohort 1 (0.2 mg/kg) N=4) of 30 min and a Cmax ([2]; Cohort 1 (0.2 mg/kg) N=4, read-out: Cmax Range) of 13.2 to 41.6 ng/mL. The Tmax ([2]; Cohort 2 (0.4 mg/kg) N=7) was 30 min, the Cmax ([2]; Cohort 2 (0.4 mg/kg) N=7, read-out: Cmax Range) was 77.1 to 167 ng/mL and the Tmax ([2]; Cohort 3 (0.6 mg/kg) N=5) was 30 min. The Cmax ([2]; Cohort 3 (0.6 mg/kg) N=5, read-out: Cmax Range) was 91.9 to 195 ng/mL, the “Best response PR, number of evaluable subjects” value (metastatic PDA; [8]) was 8 and the “Best response PR, percent of evaluable subjects” value (metastatic PDA; [8]) was 62%. For the same compound, the “Best response SD, number of evaluable subjects” value (metastatic PDA; [8]) was 5, the “Best response SD, percent of evaluable subjects” value (metastatic PDA; [8]) was 38% and the “subjects with CA 19-9 maximum decrease greater than 60%” value (metastatic PDA; cohorts 2 and 3, N=16, with G and A) was 69%. For the same compound, the DCR (metastatic PDA; [9]) was 85%, the ORR (metastatic PDA; [9]) was 62% and the CA19-9 levels decreased (metastatic PDA; interim, cohorts 2 and 3, 7 of 8 evaluable subjects, with G and A) was 76-95%. For the same compound, the Stable disease (metastatic PDA; [10]) was 1, the partial responses (metastatic PDA; [10]) was 5 patients and the “severe liver toxicities compared to cohorts of Example 4” value [3] was “unexpectedly reduced or eliminated”. The “effect on exocrine pancreas” value ([4]; cumulative exposure to repeat doses) was “exocrine pancreatic atrophy with exocrine pancreatic insufficiency without an inflammatory response and with preservation of islet cell function”, the serum trypsin-like immunoreactivity ([4]; high-dose levels, beginning 5 to 6 weeks post last dose) was < 2.5 µg/L and the “severely toxic dose (STD10)” value [5] was 3 mg/kg/day. The MTD at 3 weeks (clinical) was < 0.8 mg/kg and < 0.8 mg/kg/day, the “drug-related bone marrow suppression or peripheral neuropathy” value ([6]; any dose) was “No drug-related bone marrow suppression or peripheral neuropathy was seen at any dose” and the “focal pancreatitis at the site of the tumor” value ([6]; cohort 4 (0.4 mg/kg), at 2.3 months) was “one patient in cohort 4 developed focal pancreatitis”. For the same compound, the DLTs ([6]; cohort 5 (0.8 mg/kg), N=10) was “Three patients in cohort 5 developed serious adverse events considered dose limiting toxicities”, the DLTs ([6]; cohorts 1-4 (0.05-0.4 mg/kg)) was “No DLTs occurred” and the “drug-related serious adverse events (SAEs) or dose limiting toxicities (DLTs)” value ([6]; up to 0.4 mg/kg/day Monday through Friday×3 weeks (TCD~6 mg/kg per 8 week cycle)) was “No drug-related serious adverse events (SAEs) or dose limiting toxicities (DLTs) were observed”. The “reduction in pancreas weight” value ([7]; Study 1, 25 mg/kg QD subcutaneous, 4 to 6 wks, tumor bearing mice) was 82.9%, the toxicity / deaths ([7]; Study 1, 50 and 100 mg/kg QD) was “earlier deaths and proved to be toxic” and the “decreases in pancreas weight and tumor volume” value ([7]; Study 2, 5 mg/kg 3×/wk) was “no decreases were noted”. For the same compound, the “decrease in pancreas weight” value ([7]; Study 2, 15 mg/kg 3×/wk) was 20.1%, the “decrease in tumor volume” value ([7]; Study 2, 15 mg/kg 3×/wk) was 52.6% and the “reduction in pancreas weight” value ([7]; Study 2, 25 mg/kg 3×/wk) was 47.8%. For the same compound, the “reduction in tumor volume” value ([7]; Study 2, 25 mg/kg 3×/wk) was 66.6%, the Median survival ([7]; Study 2, 25 mg/kg 3×/wk) was 42 days and the “reduction in pancreas weight” value ([7]; Study 2, 25 mg/kg QD) was 72.7%. For the same compound, the “reduction in tumor volume” value ([7]; Study 2, 25 mg/kg QD) was 81.4%, the Median survival ([7]; Study 2, 25 mg/kg QD) was 32 days and the “decreases in body weight” value ([7]; Study 3, GEM 100 mg/kg 2×/wk ip, (S,S)-(HO)2DEHSPM 25 mg/kg 3×/wk, 4 to 6 wks) was 35.6%. The “decreases in pancreas weight” value [7, 11] was 58.8% and the “decreases in tumor volume” value [7, 11] was 58.4%.
